Reference: US6469137B1, “Myelopeptides and their therapeutic use” (Primamedic, Ltd, priority 1997, dated 2002)
Where a SMILES comes first, the peptide text is derived from it.

What was measured:
MT4 cells = type: cell-based, human
Protocol: The HIV-infected MT4 cells were incubated in RPMI-1640 culture medium supplemented with 10% FBS and 2 mM L-glutamine. The MT4 cells (0.5 million cells per 1 ml of culture medium) were placed in wells of a 24-well plastic culture plates and kept for 7 days of 37° C. in an atmosphere of 4.5% CO2. Each of the MPs examined was added into respective wells of the culture plates, to final concentrations of 0.1, 0.5, 1, 5, 10, 50 and 100 μg per 1 ml of culture were used. Azidothymidine (Sigma Chemical Co.) at its final concentration of 0.1 μg/ml, was used as a positive anti-viral control during each of the experiments.
Azidothymidine (0.1 μg/ml) caused 100% inhibition of HIV replication in the infected MT-4 cells.

[1] = tested on: encephalomyocarditis virus (EMV); experiment: Anti-viral activity in vitro, L929 cells infected by EMV; type: cell-based, mouse; conditions: pre-incubation 24 or 48 h, then 100 TCID50 of EMV
Protocol: The L929 mouse fibroblastoid cell line was maintained in vitro as described above. MP-3, MP-4, MP-5 and MP-6 were added into triplicate cultures using the following final concentrations: 500, 250, 125, 63, 31, 16, 8, 4, 2, 1, 0.5, 0.25 μg per 1 ml of culture. Ridostin was used as a control interferon-inducer.
24 or 48 h post-injection, the L929 cell cultures were infected by 100 TCID50 of EMV. During the next 24 h the viral infection caused dramatic damages in L929 cells. […] MP-5, by contrast, when added in a final concentration of 16 μg/ml or more, completely abrogated destructive influence of the virus on L929 cells. So did MP-6, when added at a concentration of 4 μg/ml or more. […] MP-4 also defended the L929 cells from the virus-induced damage, after 48 h exposure of the cells in the presence of 32 μg/ml (or higher concentration) of the preparation before their challenge by the virus.

serum interferon = experiment: Serum interferon increase in mice (titration on EMV-infected L929 cells); type: in vivo; conditions: dose and time not given

Compound | Damage of MT4 cells (cell viability) (MT4 cells) | Concentration that completely abrogated destructive influence of the virus on L929 cells [1] | Serum interferon titer, level characteristic of positive control (serum interferon)
CC(C)C[C@H](N)C(=O)N[C@H](C(=O)N[C@@H](CS)C(=O)N[C@@H](Cc1ccc(O)cc1)C(=O)N1CCC[C@H]1C(=O)N[C@@H](CCC(N)=O)C(=O)O)C(C)C [MP-3, LVCYPQ] (H-LVCYPQ-OH; N-terminus and C-terminus assumed) | no visible damage | – | –
CC[C@H](C)[C@H](NC(=O)[C@H](CCCNC(=N)N)NC(=O)[C@@H]1CCCN1C(=O)[C@H](CCCNC(=N)N)NC(=O)[C@@H](N)Cc1ccccc1)C(=O)N[C@@H](CCSC)C(=O)N[C@H](C(=O)N1CCC[C@H]1C(=O)O)[C@@H](C)O [MP-4, FRPRIMTP] (H-FRPRIMTP-OH; N-terminus and C-terminus assumed) | no visible damage | – | –
CC(C)[C@H](N)C(=O)N[C@H](C(=O)N[C@@H](Cc1ccc(O)cc1)C(=O)N1CCC[C@H]1C(=O)N[C@@H](CC(=O)O)C(=O)O)C(C)C [MP-5, VVYPD] (H-VVYPD-OH; N-terminus and C-terminus assumed) | no visible damage | – | –
CC(C)[C@H](N)C(=O)N[C@@H](CC(=O)O)C(=O)N1CCC[C@H]1C(=O)N1CCC[C@H]1C(=O)O [MP-6, VDPP] (H-VDPP-OH; N-terminus and C-terminus assumed) | no visible damage | – | –
Ridostin | – | ≥ 0.5 µg/mL | 320 units/ml
